Experimental data from PubChem BioAssay (NCI).
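Tested at 5 concentrations; 48 h exposure; 96-well plates; endpoints linearly interpolated, else capped at highest concentration. GI50 = concentration required for 50% inhibition of growth. TGI: concentration producing complete growth inhibition.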

Legend:
Experiment in all cases: growth of human tumour cells (NCI), 48 h
RPMI-8226 leukemia = tested on: RPMI-8226 leukemia
COLO 205 colon = tested on: COLO 205 colon
SK-OV-3 ovarian = tested on: SK-OV-3 ovarian
SNB-75 CNS = tested on: SNB-75 CNS
OVCAR-8 ovarian = tested on: OVCAR-8 ovarian
A549 NSCLC = tested on: A549 NSCLC
HT29 colon = tested on: HT29 colon
NCI-H460 lung = tested on: NCI-H460 lung
HOP-92 NSCLC = tested on: HOP-92 NSCLC
T-47D breast = tested on: T-47D breast

| SMILES | TGI (RPMI-8226 leukemia) [µM] | TGI (COLO 205 colon) [µM] | TGI (SK-OV-3 ovarian) [µM] | TGI (SNB-75 CNS) [µM] | TGI (OVCAR-8 ovarian) [µM] | TGI (A549 NSCLC) [µM] | TGI (HT29 colon) [µM] | TGI (NCI-H460 lung) [µM] | TGI (HOP-92 NSCLC) [µM] | GI50 (RPMI-8226 leukemia) [µM] | GI50 (COLO 205 colon) [µM] | GI50 (SK-OV-3 ovarian) [µM] | GI50 (T-47D breast) [µM] | TGI (T-47D breast) [µM] | GI50 (SNB-75 CNS) [µM] | GI50 (OVCAR-8 ovarian) [µM] | GI50 (A549 NSCLC) [µM] | GI50 (HT29 colon) [µM] | GI50 (NCI-H460 lung) [µM] | GI50 (HOP-92 NSCLC) [µM] |
| --- | --- | --- | --- | --- | --- | --- | --- | --- | --- | --- | --- | --- | --- | --- | --- | --- | --- | --- | --- | --- |
| C/C(CC(=O)CCCC(=O)Nc1ccc(Cl)cc1Cl)=N/NC(=O)CC#N | > 100 | > 100 | > 100 | > 100 | > 100 | > 100 | > 100 | > 100 |  |  |  |  |  |  |  |  |  |  |  |  |
| CCOC(=O)C1Cc2c(ccc(OC)c2OC)C(=O)C1N (stereo not drawn) | > 100 | > 100 | > 100 | > 100 | > 100 | > 100 | > 100 | > 100 | > 100 |  |  |  |  |  |  |  |  |  |  |  |
| CCOC(=O)C12CCCC1(O)N(NC(=O)c1cccc(Cl)c1)C(C)=C2C(=O)OC (stereo not drawn) | > 100 |  | > 100 | > 100 | > 100 | > 100 | > 100 | > 100 |  |  |  |  |  |  |  |  |  |  |  |  |
| C[C@]12CCC[C@H](OC=O)C1(O)C[C@H](C(=O)O)CC2 (stereo partly drawn) | > 100 | > 100 | > 100 | > 100 | > 100 | > 100 | > 100 | > 100 | > 100 |  |  |  |  |  |  |  |  |  |  |  |
| C=C(C)C1CC=C(C(=O)O)CC1 (stereo not drawn) |  | 1620 | > 5000 | 3780 | > 5000 | 3470 | > 5000 | 3950 | 3930 |  |  |  |  |  |  |  |  |  |  |  |
| COC1=CC(=O)c2ccc(C(C)C)cc2C1(C)C1=NC(C)(C)CO1 (stereo not drawn) | > 100 | > 100 | > 100 | > 100 | > 100 | > 100 | > 100 | > 100 | > 100 |  |  |  |  |  |  |  |  |  |  |  |
| COc1ccc(OC)c(/C=C/c2nnc(Nc3ccc(Cl)cc3)o2)c1 | > 100 | > 100 | 7.85 | 7.94 | 21 | 17.8 | 28.3 | > 100 |  | > 100 | 16.6 | 2.79 | 2.54 | > 100 | 2.26 | 4.91 | 3.67 | 9.44 | 3.77 |  |
| O=C1C2CC3C(CC2C(=O)[N]1[Sn]([c]1ccccc1)([c]1ccccc1)[c]1ccccc1)C1(Cl)C(Cl)=C(Cl)C3(Cl)C1(Cl)Cl (stereo not drawn) | 0.53 | 0.33 | 0.353 | 0.19 | 0.375 | 0.347 |  |  | 0.221 | 0.106 | 0.152 | 0.137 | 0.0393 | 0.22 | 0.0347 | 0.155 | 0.14 |  |  | 0.0529 |
| O=C(O)/C(Cl)=C(\Cl)Nc1cccc(C(F)(F)F)c1 |  | > 100 | > 100 | > 100 | > 100 | > 100 | > 100 | > 100 | 22.3 |  |  |  |  |  |  |  |  |  |  |  |
| O=c1[nH]cnc2c(C3OC(CO)C(O)C3O)[nH]nc12 (stereo not drawn) | > 100 | > 100 | 28.3 | > 100 | 70.3 |  | > 100 | > 100 |  |  |  |  |  | > 100 |  |  |  |  |  |  |
| CCCCCCCCN(CCCCCCCC)C(=N)c1ccnc2ccccc12 |  | 0.445 | 3 | 2.36 | 3.27 | 3.11 | 1.06 |  | 2.32 |  | 0.2 | 1.61 | 1.24 | 2.93 | 1.01 | 1.58 | 1.58 | 0.292 |  | 1.02 |
| Cc1cc(N(CCC#N)CCC#N)ccc1/C=C1/CN(N2C(=O)/C(=C/c3ccc(N(CCC#N)CCC#N)cc3C)N=C2c2ccccc2)C(c2ccccc2)=N1 |  | > 100 |  | 51.1 | > 100 | > 100 | > 100 | > 100 | > 100 |  |  |  |  |  |  |  |  |  |  |  |
| CCCCCCCCCCCCCCCCC1=CC(=O)C=C(OC)C1=O | > 100 | > 100 | > 100 | > 100 | > 100 | > 100 | > 100 | > 100 | > 100 |  |  |  |  |  |  |  |  |  |  |  |
| O=c1ncc(-c2ccc(C(F)(F)F)cc2)c(NC2CCCCCC2)[nH]1 | 39.6 | 34.7 | 64.3 | 33.4 | 40.4 | > 100 | 39 | 35 |  | 15.8 | 19.6 | 27.3 | 17.2 | 57.8 | 13.7 | 18.7 | 25.5 | 21.5 | 17.7 |  |
| CC(=O)[CH-]C(=O)c1ccccc1.CC(=O)[CH-]C(=O)c1ccccc1.O=C([O-])C[O-].O=C([O-])C[O-].[Ti+4] | > 100 |  | > 100 | 56.7 | > 100 | > 100 | 91.7 | > 100 |  | 49.9 |  | 35.8 |  |  | 18.6 | 77 | 18.2 | 27.7 | 28.4 |  |
| O=C(O)C1C2C=CC(O2)C1C(=O)Nc1ccccc1 (stereo not drawn) | > 100 | > 100 | > 100 | > 100 | > 100 | > 100 | > 100 |  |  |  |  |  |  | > 100 |  |  |  |  |  |  |
| CN1C(=O)n2c(nc3ccccc32)C(N=[N+]=[N-])(N=[N+]=[N-])C1=O (stereo not drawn) | > 100 | > 100 | > 100 | > 100 | > 100 | > 100 | > 100 | > 100 | > 100 |  |  |  |  |  |  |  |  |  |  |  |
| CC(C#N)c1cn(S(=O)(=O)c2ccccc2)c2ccccc12 (stereo not drawn) | > 100 | > 100 |  | 38.2 | > 100 | > 100 | > 100 | > 100 | 53.8 |  |  |  |  |  |  |  |  |  |  |  |
| Nn1c(CCCl)nc2c(Br)cc(Br)cc2c1=O | 58.5 | 54.1 | > 94.1 | 91.5 | > 100 | > 100 | > 100 | 65.1 | > 90.8 |  |  |  |  |  |  |  |  |  |  |  |
